# Data taken from US20250351832A1, “PHYTOCHEMICALS AS BIOPESTICIDES AND BIOSTIMULANTS” (KAY BEE BIO ORGANICS PVT. LTD., priority 2024, published 2025).
# Where two headings read alike, the source gives them in different places.
# What was measured:
# Alternaria alternata [1] = assay: In vitro poisoned food technique against fungus (Ex. 20); assay type: cell-based; details: poisoned food technique, PDA medium, dose 1 ml/gm/lit., after seven days
# Alternaria alternata [2] = assay: Alternaria leaf spot/blight on inoculated tomato plants (Ex. 28); assay type: in vivo; details: tomato plants, Alternaria alternata; after 7 days; dose 1 ml/gm/lit
# tomato seedlings = assay: Response of tomato plants, greenhouse growth (Ex. 30); assay type: in vivo; details: tomato seedlings, dose 1 ml/gm/lit
# chili seedlings = assay: Response of chili plants, greenhouse growth (Ex. 31); assay type: in vivo; details: chili seedlings, dose 1 ml/gm/lit
# Aphid [3] = details: Dose 1 ml/gm/lit.
# Mite [4] = details: Dose 1 ml/gm/lit.
# Mealy Bug [5] = details: Mealy Bug on cotton leaves, dose 1 ml/gm/lit., 48 Hrs.
# Helicoverpa armigera [6] = details: Helicoverpa armigera on okra fruits, dose 1 ml/gm/lit., 72 Hrs.
# Spodoptera litura [7] = details: Spodoptera litura on castor leaves; dose 1 ml/gm/lit.; 10 insects/treatment; 72 hrs after application
# Thrips [8] = details: Thrips on cotton leaves; dose 1 ml/gm/lit.; 10 insects/treatment; 48 hrs after application
# Aphid [9] = details: Aphids on cotton plants, green house; dose 1 ml/gm/lit.; 10 insects/plant, 10 plants/treatment; 48 hrs
# Mite [10] = details: mite on okra plants, green house, dose 1 ml/gm/lit. spray
# Mealy Bug [11] = details: mealy bug on cotton plants, green house, dose 1 ml/gm/lit. spray
# Helicoverpa armigera [12] = details: Helicoverpa armigera 3rd instar on chickpea plants, dose 1 ml/gm/lit. spray
# Spodoptera litura [13] = details: Spodoptera litura 3rd instar on cabbage plants, dose 1 ml/gm/lit. spray
# Thrips [14] = details: thrips on cotton plants, greenhouse, dose 1 ml/gm/lit. spray
# [15] = cited from earlier work
# Spodoptera litura [16] = assay: whole plant or invertebrate; details: 72 h
# Thrips [17] = assay: whole plant or invertebrate; details: in Gossypium hirsutum, 48 h
# Aphid [18] = assay: whole plant or invertebrate; details: 48 h
# [19] = 10 insects/treatment, 4 replications
# [20] = 48 hrs, corrected for water control
# [21] = 72 hrs, corrected for water control
# [22] = Table 13, descriptive, no test described
# [23] = read-out: % Corrected Mortality at 48 Hrs.
# [24] = read-out: % Mortality at 48 Hrs.
structure (smiles),measurement,setting,value
"CCCCCCCCCC(C)=O [Embodiment 2-undecanone, 2-undecanone]",Mean colony Diameter (mm),Alternaria alternata [1],52.00 mm
same,inhibition of growth at 1 mL or g/L,"Alternaria alternata [1]; vs untreated control, read-out: % Inhibition of growth",40.9%
same,% Disease reduction over Control,Alternaria alternata [2],58.68%
same,Plant Height 5th Day,tomato seedlings; 5th day after application,6.48 cm
same,Stem Girth 5th Day,tomato seedlings; 5th day after application,1.61 mm
same,Plant Height 10th Day,tomato seedlings; 10th day after application,7.56 cm
same,Stem Girth 10th Day,tomato seedlings; 10th day after application,2.40 mm
same,Plant Height % Increase over pre on 10th Day,tomato seedlings; 10th day,40.52%
same,Stem Girth % Increase over pre on 10th Day,tomato seedlings; 10th day,68.29%
same,CCI 5th Day,tomato seedlings; 5th day after application,13.42
same,CCI % Increase over pre on 10th Day,tomato seedlings; 10th day,30.95%
same,Root Length (cm) 10th Day,tomato seedlings; 10th day,4.54 cm
same,CCI 10th Day,tomato seedlings; 10th day after application,15.23
same,Root Length % Increase over control,"tomato seedlings; 10th day, vs water control",36.48%
same,CCI 5th Day,chili seedlings; 5th day after application,13.57
same,Plant Height (cm) 5th Day,chili seedlings; 5th day after application,5.97 cm
same,CCI % Increase over pre on 10th Day,chili seedlings; 10th day,70.42%
same,Plant Height % Increase over pre on 10th Day,chili seedlings; 10th day,68.11%
same,Root Lenght (cm) 10th Day,chili seedlings; 10th day,4.44 cm
same,Stem Girth % Increase over pre on 10th Day,chili seedlings; 10th day,60.61%
same,CCI 10th Day,chili seedlings; 10th day after application,15.15
same,Plant Height (cm) 10th Day,chili seedlings; 10th day after application,6.59 cm
same,Root Lenght % Increase over control,"chili seedlings; 10th day, vs water control",62.21%
same,Total No. of dead insect at 48 Hrs.,"Aphid [3]; 10 insects/treatment, 4 replications, cotton leaves",6.75
same,% Corrected Mortality at 48 Hrs.,Aphid [3]; 48 hrs,62.86%
same,Total No. of dead insect at 48 Hrs.,"Mite [4]; 10 insects/treatment, 4 replications, okra leaves",3.00
same,% Corrected Mortality at 48 Hrs.,Mite [4]; 48 hrs,24.32%
same,% Mortality at 48 Hrs.,Mite [4]; 48 hrs,30.00%
same,Total No. of dead insect at 48 Hrs.,Mealy Bug [5]; [19],5.50
same,% Mortality at 48 Hrs.,Mealy Bug [5],55.00%
same,% Corrected Mortality at 48 Hrs.,Mealy Bug [5]; corrected for water control,52.63%
same,Total No. of dead insect at 72 Hrs.,Helicoverpa armigera [6]; [19],5.50
same,% Mortality at 72 Hrs.,Helicoverpa armigera [6],55.00%
same,% Corrected Mortality at 72 Hrs.,Helicoverpa armigera [6]; corrected for water control,55.00%
same,Total No. of dead insect at 72 Hrs.,Spodoptera litura [7],4.00
same,Total No. of dead insect at 48 Hrs.,Thrips [8],5.00
same,Total No. of dead insect at 48 Hrs.,Aphid [9],67.50
same,% Mortality at 48 Hrs.,Mite [10]; 48 hrs after application,27.50%
same,Total No. of dead insect at 48 Hrs.,Mite [10]; 48 hrs after application,27.50
same,% Corrected Mortality at 48 Hrs.,Mite [10]; [20],23.68%
same,% Mortality at 48 Hrs.,Mealy Bug [11]; 48 hrs after application,57.50%
same,Total No. of dead insect at 48 Hrs.,Mealy Bug [11]; 48 hrs after application,57.50
same,% Corrected Mortality at 48 Hrs.,Mealy Bug [11]; [20],52.78%
same,% Mortality at 72 Hrs.,Helicoverpa armigera [12]; 72 hrs after application,52.50%
same,% Corrected Mortality at 72 Hrs.,Helicoverpa armigera [12]; [21],52.50%
same,% Mortality at 72 Hrs.,Spodoptera litura [13]; 72 hrs after application,42.50%
same,% Corrected Mortality at 72 Hrs.,Spodoptera litura [13]; [21],39.47%
same,% Mortality at 48 Hrs.,Thrips [14]; 48 hrs after application,47.50%
same,Total No. of dead insect at 48 Hrs.,Thrips [14]; 48 hrs after application,47.50
same,% Corrected Mortality at 48 Hrs.,Thrips [14]; [20],41.67%
same,Antifungal Activity - Mode of action,[15]; [22],Antifungal and repellent
same,Bactericidal Activity - Mode of action,[15]; [22],Moderate anti-bacterial
same,Insecticidal Activities - Mode of action,[15]; [22],"Insecticidal action,"
same,Phytotonic Effect,"[15]; Table 13, effect on plants, descriptive",Increasing root
same,mortality at 1 mL or g/L,Spodoptera litura [16]; read-out: % Corrected Mortality at 72 Hrs.,36.8%
same,mortality at 1 mL or g/L,Spodoptera litura [16]; read-out: % Mortality at 72 Hrs.,40%
same,mortality at 1 mL or g/L,Thrips [17]; [23],42.9%
same,mortality at 1 mL or g/L,Thrips [17]; [24],50%
same,mortality at 1 mL or g/L,Aphid [18]; [23],61.8%
same,mortality at 1 mL or g/L,Aphid [18]; [24],67.5%
